From US20070232690A1, “Composition for inducing differentiation of leukemic cells and application thereof” (Mackay Memorial Hospital, priority 2006, published 2007)
Values after ≈ are worked out from the molar mass of the structure shown. Marks after values point to notes of the source that are not given here.

Legend:
Assay type in all cases: cell-based, human
[1] = test system: HL-60 cells; experiment: Induction of monocytic differentiation by various combination treatments
Method: After 5 days of treatments (1-5 μg/ml of […]) as described in Example 1, HL-60 cells were collected and cytocentrifuged onto a microscope slide using a Cytospin, stained with Wright's stain and observed under an inverted microscope (Olympus) with a magnification of 1000×. Based on morphology, the cells were classified as: […] These combination treatments included: […]

[2] = test system: HL-60 cells; experiment: Assay for cell growth inhibition (Trypan blue dye exclusion); conditions: for inhibition at 5 µg/mL: 5 μg/ml
Excerpt: The human myeloid leukemic cell line HL-60 is known to be induced by several biological agents or chemical drugs to differentiate into mature cells. The results of differentiation can be cell morphological changes, cell chemical changes or functionally mature changes. Therefore, HL-60 cells were often applied in many differentiation studies of leukemic cells. The present invention used the human myeloid leukemic cell line HL-60 (ATCC, Manassas, Va.) to study the cell differentiation inducting ability of 278E.
The HL-60 cells were cultured in RPMI 1640 medium containing 10% fetal bovine serum and maintained in an exponential growth state. For assay of cytotoxicity, cells were incubated at an initial concentration of 1×10^5 cells/ml in the presence of various concentrations of 278E compounds (1-6 μg/ml) for 1-5 days.

[3] = test system: HL-60 cells; experiment: Maturation profiles (morphology, Wright's stain)
Method: After 5 days of treatments (1-5 μg/ml of 278E) as described in Example 1, HL-60 cells were collected and cytocentrifuged onto a microscope slide using a Cytospin, stained with Wright's stain and observed under an inverted microscope (Olympus) with a magnification of 1000×. Based on morphology, the cells were classified as: (1) immature blasts, (2) intermediates, or (3) mature monocytes or macrophages, and the ratio was counted respectively.

[4] = test system: HL-60 cells; experiment: Assay for superoxide production (NBT reduction); conditions: 5 days
Method: It has been known that immature blast cells had little superoxide production. The differentiation of cells is further evidenced in changes of superoxide production. Cells collected from example 1 after treatment with 278E for 5 days were collected and resuspended in RPMI 1640 medium at a concentration of 1×10^6 cells/ml and incubated for 30 min at 37° C. with an equal volume of nitroblue tetrazolium test stock solution [containing 2 mg of NBT and 1 μM of phorbol myristate acetate per ml of phosphate buffered saline]. Cells were collected and cytocentrifuged onto a microscope slide using cytospin. Cytospin preparations were counter-stained with 0.5% safranin O. The percentage of formazan-containing cells (based on counting 200 cells) was assessed microscopically.

[5] = test system: HL-60 cells; experiment: Assay for differentiation antigens (indirect immunofluorescence, flow cytometry); conditions: day 5
Method: An indirect immunofluorescence method was employed in the invention to detect the expression of monocyte-associated antigens on the surface of HL-60 cells after induction of differentiation. 278E-treated cells collected from day 5 cultures were treated with primary monoclonal antibodies, washed with PBS and then exposed to a solution containing […] (FITC) conjugated secondary antibody, goat F(ab′)2 antimouse IgG (Cappel, Cochranville, Pa.). The aforementioned monoclonal antibodies against human monocytes included anti-CD 11b, anti-CD14 (Serotec, Oxford, UK), and anti-CD68 (Dakopatts, Glostrup, Denmark). The percentage of positive cells analyzed with a FACScan flow cytometer (Becton Dickenson, Franklin Lakes, N.J.) and Lysis II software (Becton Dickinson) is shown in Table 2.

[6] = test system: c-myc, c-fms, c-fos and c-jun in HL-60 cells; experiment: Expression of proto-oncogenes (RNA blot)
Method: Total RNA was isolated from HL-60 cells using an RNAzol B kit (Biotecx, Galveston, Tex.) and quantified spectrophotometrically. Total cellular RNA (20 μg) from control or 278E-treated cells was electrophoresed on a 1.2% agarose gel and transferred to a nylon membrane. The blots were probed with radiolabeled cDNA of c-myc, c-fms, c-fos and c-jun. Glyceraldehyde-3-phosphate dehydrogenase (G3PDH) was used as an internal control.

[7] = test system: HL-60 cells; experiment: Induction of monocytic differentiation by various combination treatments; remark: listed apart in the source

SMILES: CC1CNCCN1S(=O)(=O)c1cccc2cnccc12 (centres unmarked) [H7]
- monocytes/macrophages (%) ([1]; H7 15 μM alone): 0%

SMILES: CN[C@@H]1C[C@H]2O[C@@](C)([C@@H]1OC)n1c3ccccc3c3c4c(c5c6ccccc6n2c5c31)C(=O)NC4 [Staurosporine]
- monocytes/macrophages (%) ([1]; Staurosporine 10 nM alone): 0%

SMILES: CCCCCCCCCCCCCC(=O)O[C@@H]1[C@@H](C)[C@@]2(O)[C@@H](C=C(CO)C[C@]3(O)C(=O)C(C)=C[C@@H]23)[C@H]2C(C)(C)[C@]12OC(C)=O [TPA]
- differentiation-inducing activity after pretreatment of PKC inhibitor H7 and staurosporine ([1]; HL-60 cells, Table 3): suppressed
- monocytes/macrophages (%) ([1]; TPA 10 ng/ml alone): 76.8 ± 7.2%
- monocytes/macrophages (%) ([1]; TPA 10 ng/ml with H7 15 μM): 30.2 ± 4.5%
- monocytes/macrophages (%) ([1]; TPA 10 ng/ml with Staurosporine 10 nM): 35.0 ± 2.3%

SMILES: COc1cc(-c2oc3c(OC)cc(CCCO)cc3c2CO)ccc1Oc1ccccc1 [278E]
- effect on cell viability compared with untreated cells ([2]; 1 μg/ml): minimal effect
- inhibition at 5 µg/mL ([2]; Homo sapiens, HL-60, 72 h, day 3): 85.5 ± 2.8%
- inhibition at 5 µg/mL ([2]; Homo sapiens, HL-60, 120 h, day 5): 91.7 ± 1.7%
- IC50 ([2]; Homo sapiens, HL-60 cells, viable cell count, 1-6 μg/ml for 1-5 days, read-out: concentration yielding 50% inhibition (IC50)): 3.48 µg/mL (≈ 8.01 µM)
- growth of HL-60 cells ([2]; dose- and time-dependent (FIG. 1)): inhibited significantly
- cell morphology ([3]; after 5 days of treatment (FIG. 2B)): many cells exhibited changes in characteristics
- percentage of mature monocyte/macrophage ([3]; after 5 days of treatment (FIG. 3), concentration not given): 82.0±6.3%
- NBT reduction, Positive cells (%) ([4]; 1 μg/ml): 0.3 ± 0.3%
- NBT reduction, Positive cells (%) ([4]; 2 μg/ml): 1.8 ± 1.2%
- NBT reduction, Positive cells (%) ([4]; 3 μg/ml): 9.3 ± 2.8%
- NBT reduction, Positive cells (%) ([4]; 4 μg/ml): 59.0 ± 12.6 ^a %
- Positive cells (%) CD11b ([5]; 1 μg/ml): 1.8 ± 0.5%
- Positive cells (%) CD14 ([5]; 1 μg/ml): 1.5 ± 0.4%
- Positive cells (%) CD68 ([5]; 1 μg/ml): 1.4 ± 0.4%
- Positive cells (%) CD11b ([5]; 2 μg/ml): 2.6 ± 0.6%
- Positive cells (%) CD14 ([5]; 2 μg/ml): 2.1 ± 0.6%
- Positive cells (%) CD68 ([5]; 2 μg/ml): 1.8 ± 0.4%
- Positive cells (%) CD11b ([5]; 3 μg/ml): 18.1 ± 6.5 ^a %
- Positive cells (%) CD14 ([5]; 3 μg/ml): 5.8 ± 2.8%
- Positive cells (%) CD68 ([5]; 3 μg/ml): 5.6 ± 2.1%
- Positive cells (%) CD11b ([5]; 4 μg/ml): 62.1 ± 10.4 ^a %
- Positive cells (%) CD14 ([5]; 4 μg/ml): 47.7 ± 10.6 ^a %
- Positive cells (%) CD68 ([5]; 4 μg/ml): 34.5 ± 9.9 ^a %
- Positive cells (%) CD11b ([5]; 5 μg/ml): 79.6 ± 9.8 ^a %
- Positive cells (%) CD68 ([5]; 5 μg/ml): 53.7 ± 10.0 ^a %
- expression of c-myc ([6]; 6 μg/ml, 16 hour treatment (FIG. 4A)): markedly suppressed
- expression of c-fms ([6]; after treatment (FIG. 4B)): enhanced
- expression of c-jun ([6]; after treatment (FIG. 4C)): enhanced
- expression of c-fos ([6]; after treatment (FIG. 4D)): enhanced
- monocytes/macrophages (%) ([7]; 278E 6 μg/m with H7 15 μM): 51.3 ± 5.3%
- monocytes/macrophages (%) ([7]; 278E 6 μg/ml alone): 56.1 ± 6.2%
- monocytes/macrophages (%) ([7]; 278E 6 μg/ml with Staurosporine 10 nM): 55.6 ± 4.7%
